Assay results taken from the supplement of paper PMC10307832.

What was measured:
Test in all cases: relative viability (nuclei count vs DMSO), 5 days (fraction); higher = more cells survive
Omipalisib = compound: COc1ncc(-c2ccc3nccc(-c4ccnnc4)c3c2)cc1NS(=O)(=O)c1ccc(F)cc1F [Omipalisib]
Procedure, shortened: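 Viability was defined as treated-well nuclei divided by vehicle-well nuclei, with the median taken over replicate plates. Cells from lung cancer lines sat overnight at 37 °C in 1536-well plates, received five √10-spaced library-drug doses by pinning on vehicle-anchored plates, and grew 5 days without medium change before one-step fixation, permeabilisation and Hoechst staining, 4× imaging and MetaXpress nuclear counts. Only plates with control CV under 25% and at least one doubling were kept.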

Omipalisib + Navitoclax = compound: COc1ncc(-c2ccc3nccc(-c4ccnnc4)c3c2)cc1NS(=O)(=O)c1ccc(F)cc1F [Omipalisib] + CC1(C)CCC(c2ccc(Cl)cc2)=C(CN2CCN(c3ccc(C(=O)NS(=O)(=O)c4ccc(N[C@H](CCN5CCOCC5)CSc5ccccc5)c(S(=O)(=O)C(F)(F)F)c4)cc3)CC2)C1 [Navitoclax] (partner 0.5 µM)
Procedure, shortened: (§1)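 Relative viability was taken as the ratio of nuclei in treated wells to nuclei in vehicle wells. Lung cancer cell lines in 1536-well plates received compounds by pin tool one day after seeding, either one drug alone or a fixed anchor-drug dose plus five library-drug doses (not always all listed) in √10 steps. Nuclei were counted on 4× images after 5 days of treatment, and values are medians of duplicate plates.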

Omipalisib + Pictilisib = compound: COc1ncc(-c2ccc3nccc(-c4ccnnc4)c3c2)cc1NS(=O)(=O)c1ccc(F)cc1F [Omipalisib] + CS(=O)(=O)N1CCN(Cc2cc3nc(-c4cccc5[nH]ncc45)nc(N4CCOCC4)c3s2)CC1 [Pictilisib] (partner 1 µM)
Procedure, shortened: as §1

Omipalisib + Linsitinib = compound: COc1ncc(-c2ccc3nccc(-c4ccnnc4)c3c2)cc1NS(=O)(=O)c1ccc(F)cc1F [Omipalisib] + C[C@]1(O)C[C@@H](c2nc(-c3ccc4ccc(-c5ccccc5)nc4c3)c3c(N)nccn32)C1 [Linsitinib] (partner 1 µM)
Procedure, shortened: as §1

Omipalisib + Alpelisib = compound: COc1ncc(-c2ccc3nccc(-c4ccnnc4)c3c2)cc1NS(=O)(=O)c1ccc(F)cc1F [Omipalisib] + Cc1nc(NC(=O)N2CCC[C@H]2C(N)=O)sc1-c1ccnc(C(C)(C)C(F)(F)F)c1 [Alpelisib] (partner 2 µM)
Procedure, shortened: as §1

Omipalisib + Vorinostat = compound: COc1ncc(-c2ccc3nccc(-c4ccnnc4)c3c2)cc1NS(=O)(=O)c1ccc(F)cc1F [Omipalisib] + O=C(CCCCCCC(=O)Nc1ccccc1)NO [Vorinostat] (partner 1 µM)
Procedure, shortened: as §1

Row | Cell Line | relative viability (Omipalisib; 0.0003 µM) | relative viability (Omipalisib; 0.003 µM) | relative viability (Omipalisib; 0.03 µM) | relative viability (Omipalisib + Navitoclax; first compound 0.0003 µM) | relative viability (Omipalisib + Navitoclax; first compound 0.003 µM) | relative viability (Omipalisib + Navitoclax; first compound 0.03 µM) | relative viability (Omipalisib + Pictilisib; first compound 0.0003 µM) | relative viability (Omipalisib + Pictilisib; first compound 0.003 µM) | relative viability (Omipalisib + Pictilisib; first compound 0.03 µM) | relative viability (Omipalisib + Linsitinib; first compound 0.0003 µM) | relative viability (Omipalisib + Linsitinib; first compound 0.003 µM) | relative viability (Omipalisib + Linsitinib; first compound 0.03 µM) | relative viability (Omipalisib + Alpelisib; first compound 0.0003 µM) | relative viability (Omipalisib + Alpelisib; first compound 0.003 µM) | relative viability (Omipalisib + Alpelisib; first compound 0.03 µM) | relative viability (Omipalisib + Vorinostat; first compound 0.0003 µM) | relative viability (Omipalisib + Vorinostat; first compound 0.003 µM) | relative viability (Omipalisib + Vorinostat; first compound 0.03 µM)
1 | PC-14 | 1.05 | 1.05 | 0.795 | 1.02 | 1.07 | 0.923 | 0.749 | 0.619 | 0.383 | 0.954 | 0.931 | 0.794 | 0.997 | 0.955 | 0.876 | 0.683 | 0.527 | 0.373
2 | RERF-LC-KJ | 0.942 | 0.733 | 0.571 | 0.79 | 0.7 | 0.627 | 0.488 | 0.463 | 0.397 | 0.883 | 0.716 | 0.697 | 0.865 | 0.583 | 0.627 | 0.627 | 0.52 | 0.424
3 | SK-LU-1 | 0.914 | 0.778 | 0.569 | 0.926 | 0.237 | 0.625 | 0.685 | 0.504 | 0.511 | 1.03 | 1 | 0.679 | 0.937 | 0.838 | 0.642 | 0.758 | 0.561 | 0.535
4 | SK-MES-1 | 0.927 | 0.607 | 0.452 | 1.21 | 0.836 | 0.464 | 0.423 | 0.318 | 0.347 | 1.02 | 0.785 | 0.69 | 0.847 | 0.66 | 0.458 | 1.02 | 0.739 | 0.526
5 | SW 1573 | 0.731 | 0.713 | 0.492 | 0.921 | 0.745 | 0.475 | 0.495 | 0.388 | 0.341 | 0.777 | 0.476 | 0.465 | 0.642 | 0.511 | 0.43 | 0.236 | 0.456 | 0.315
6 | UMC-11 | 0.886 | 0.643 | 0.823 | 0.31 | 0.277 | 0.265 | 0.702 | 0.425 | 0.67 | 0.953 | 0.838 | 0.694 | 0.965 | 0.829 | 0.822 | 0.416 | 0.281 | 0.264
